Source: PubChem BioAssay AID1963832 (Molecular Pharmacology Branch, DTP, NCI, 2024)

Tested on: 885724-159-R-J1-PDC complex spheroid viability
Assay: Anticancer human tumor 885724-159-R-J1-PDC patient-derived pancreatic adenocarcinoma cell line growth inhibition [POLQ]
Settings: for IC50: curve of first compound; for viability, T/C: stronger effect = lower value
Summary of the method: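 Patient-derived tumour cells were co-cultured with HUVEC and mesenchymal stem cells as multicellular spheroids at 37 °C. They were treated with POLQ inhibitors (novobiocin, ART-558, RP6685) alone or combined with other agents. Top concentrations were at or near clinical Cmax (otherwise 10 microM; SN-38 at 1 microM), decreasing in half-log steps.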

[1] = second compound 0.0316 µM, first compound 0.0316 µM
[2] = second compound 0.0316 µM, first compound 0.1 µM
[3] = second compound 0.0316 µM, first compound 0.316 µM
[4] = second compound 0.0316 µM, first compound 1 µM
[5] = second compound 0.1 µM, first compound 0.0316 µM
[6] = second compound 0.1 µM, first compound 0.1 µM
[7] = second compound 0.1 µM, first compound 0.316 µM
[8] = second compound 0.1 µM, first compound 1 µM
[9] = second compound 0.316 µM, first compound 0.0316 µM
[10] = second compound 0.316 µM, first compound 0.1 µM
[11] = second compound 0.316 µM, first compound 0.316 µM
[12] = second compound 0.316 µM, first compound 1 µM
[13] = second compound 1 µM, first compound 0.0316 µM
[14] = second compound 1 µM, first compound 0.1 µM
[15] = second compound 1 µM, first compound 0.316 µM
[16] = second compound 1 µM, first compound 1 µM
[17] = second compound 3.16 µM, first compound 0.0316 µM
[18] = second compound 3.16 µM, first compound 0.1 µM
[19] = second compound 3.16 µM, first compound 0.316 µM
[20] = second compound 3.16 µM, first compound 1 µM
[21] = second compound 10 µM, first compound 0.0316 µM
[22] = second compound 10 µM, first compound 0.1 µM
[23] = second compound 10 µM, first compound 0.316 µM
[24] = second compound 10 µM, first compound 1 µM
[25] = second compound 0.0316 µM, first compound 3.16 µM
[26] = second compound 0.0316 µM, first compound 10 µM
[27] = second compound 0.1 µM, first compound 3.16 µM
[28] = second compound 0.1 µM, first compound 10 µM
[29] = second compound 0.316 µM, first compound 3.16 µM
[30] = second compound 0.316 µM, first compound 10 µM
[31] = second compound 1 µM, first compound 3.16 µM
[32] = second compound 1 µM, first compound 10 µM
[33] = second compound 3.16 µM, first compound 3.16 µM
[34] = second compound 3.16 µM, first compound 10 µM
[35] = second compound 10 µM, first compound 3.16 µM
[36] = second compound 10 µM, first compound 10 µM
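Further: spheroids exposed to compounds for 7 days.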

C=CCn1c(=O)c2cnc(Nc3ccc(N4CCN(C)CC4)cc3)nc2n1-c1cccc(C(C)(C)O)n1 + Nc1ccc(C#CCN(C(=O)Cc2ncc(C(F)(F)F)cc2C(F)(F)F)c2ccc(F)cc2)nn1
IC50 (second compound 0.0316 µM): 0.762 µM
IC50 (second compound 0.1 µM): 0.667 µM
IC50 (second compound 0.316 µM): 0.63 µM
IC50 (second compound 1 µM): > 1 µM
IC50 (second compound 3.16 µM): 0.779 µM
IC50 (second compound 10 µM): 0.88 µM
viability, T/C (second compound 0.0316 µM, first compound 0.00316 µM): 96.6%
viability, T/C (second compound 0.0316 µM, first compound 0.01 µM): 96%
viability, T/C [1]: 79.6%
viability, T/C [2]: 67.8%
viability, T/C [3]: 57.4%
viability, T/C [4]: 47.3%
viability, T/C (second compound 0.1 µM, first compound 0.00316 µM): 106%
viability, T/C (second compound 0.1 µM, first compound 0.01 µM): 95.1%
viability, T/C [5]: 86.5%
viability, T/C [6]: 73.8%
viability, T/C [7]: 57.1%
viability, T/C [8]: 45.8%
viability, T/C (second compound 0.316 µM, first compound 0.00316 µM): 94.9%
viability, T/C (second compound 0.316 µM, first compound 0.01 µM): 92.2%
viability, T/C [9]: 89.8%
viability, T/C [10]: 73.9%
viability, T/C [11]: 56.2%
viability, T/C [12]: 46%
viability, T/C (second compound 1 µM, first compound 0.00316 µM): 102%
viability, T/C (second compound 1 µM, first compound 0.01 µM): 92.6%
viability, T/C [13]: 91.3%
viability, T/C [14]: 76%
viability, T/C [15]: 58.1%
viability, T/C [16]: 53.3%
viability, T/C (second compound 3.16 µM, first compound 0.00316 µM): 96.3%
viability, T/C (second compound 3.16 µM, first compound 0.01 µM): 101%
viability, T/C [17]: 88.2%
viability, T/C [18]: 73.9%
viability, T/C [19]: 56%
viability, T/C [20]: 48.3%
viability, T/C (second compound 10 µM, first compound 0.00316 µM): 116%
viability, T/C (second compound 10 µM, first compound 0.01 µM): 98.2%
viability, T/C [21]: 98.5%
viability, T/C [22]: 81.4%
viability, T/C [23]: 63.7%
viability, T/C [24]: 48.2%

CC1COCCN1c1cc(C2(S(C)(=N)=O)CC2)nc(-c2ccnc3[nH]ccc23)n1 (stereo unspecified) + Nc1ccc(C#CCN(C(=O)Cc2ncc(C(F)(F)F)cc2C(F)(F)F)c2ccc(F)cc2)nn1
IC50 (second compound 0.0316 µM): > 10 µM
IC50 (second compound 0.1 µM): 7.07 µM
IC50 (second compound 0.316 µM): > 10 µM
IC50 (second compound 1 µM): 6.07 µM
IC50 (second compound 3.16 µM): 8 µM
IC50 (second compound 10 µM): > 10 µM
viability, T/C [1]: 87.3%
viability, T/C [2]: 89.6%
viability, T/C [3]: 90.4%
viability, T/C [4]: 75.9%
viability, T/C [25]: 55.7%
viability, T/C [26]: 50%
viability, T/C [5]: 104%
viability, T/C [6]: 94.5%
viability, T/C [7]: 94%
viability, T/C [8]: 71.5%
viability, T/C [27]: 57.8%
viability, T/C [28]: 46.7%
viability, T/C [9]: 95.3%
viability, T/C [10]: 97.2%
viability, T/C [11]: 83.4%
viability, T/C [12]: 63.4%
viability, T/C [29]: 55.5%
viability, T/C [30]: 53.2%
viability, T/C [13]: 95.3%
viability, T/C [14]: 85.1%
viability, T/C [15]: 87.8%
viability, T/C [16]: 75.9%
viability, T/C [31]: 55.8%
viability, T/C [32]: 45.4%
viability, T/C [17]: 94.3%
viability, T/C [18]: 88.6%
viability, T/C [19]: 91.1%
viability, T/C [20]: 69.9%
viability, T/C [33]: 53.5%
viability, T/C [34]: 48.4%
viability, T/C [21]: 95.6%
viability, T/C [22]: 99.7%
viability, T/C [23]: 94.7%
viability, T/C [24]: 64.1%
viability, T/C [35]: 57.8%
viability, T/C [36]: 47%

CCCS(=O)(=O)Nc1ccc(F)c(C(=O)c2c[nH]c3ncc(-c4ccc(Cl)cc4)cc23)c1F + Nc1ccc(C#CCN(C(=O)Cc2ncc(C(F)(F)F)cc2C(F)(F)F)c2ccc(F)cc2)nn1
IC50 (second compound 0.0316 µM): > 10 µM
IC50 (second compound 0.1 µM): > 10 µM
IC50 (second compound 0.316 µM): > 10 µM
IC50 (second compound 1 µM): > 10 µM
IC50 (second compound 3.16 µM): > 10 µM
IC50 (second compound 10 µM): > 10 µM
viability, T/C [1]: 93.2%
viability, T/C [2]: 95.2%
viability, T/C [3]: 115%
viability, T/C [4]: 128%
viability, T/C [25]: 147%
viability, T/C [26]: 97.6%
viability, T/C [5]: 105%
viability, T/C [6]: 107%
viability, T/C [7]: 109%
viability, T/C [8]: 137%
viability, T/C [27]: 153%
viability, T/C [28]: 97.5%
viability, T/C [9]: 99.4%
viability, T/C [10]: 110%
viability, T/C [11]: 118%
viability, T/C [12]: 134%
viability, T/C [29]: 147%
viability, T/C [30]: 94.1%
viability, T/C [13]: 95.6%
viability, T/C [14]: 101%
viability, T/C [15]: 116%
viability, T/C [16]: 132%
viability, T/C [31]: 148%
viability, T/C [32]: 95%
viability, T/C [17]: 90.8%
viability, T/C [18]: 103%
viability, T/C [19]: 109%
viability, T/C [20]: 144%
viability, T/C [33]: 146%
viability, T/C [34]: 85%
viability, T/C [21]: 96.8%
viability, T/C [22]: 109%
viability, T/C [23]: 133%
viability, T/C [24]: 137%
viability, T/C [35]: 135%
viability, T/C [36]: 94.5%
